Data taken from US20190322676A1, “CERAMIDE GALACTOSYLTRANSFERASE INHIBITORS FOR THE TREATMENT OF DISEASE” (BioMarin Pharmaceutical Inc., priority 2016, published 2019).
pIC50: −log10 of the molar value. Where a name gives a salt, the structure may show the parent alone.

What follows are compounds tested against T1, human CGT (ceramide galactosyltransferase), CHO/CGT lysate (Homo sapiens, UniProt Q16880) (assay: CGT enzyme assay, RapidFire/MS/MS readout (Table 1 ranges with one asterisk *)). Details: RapidFire method (range with one asterisk *).
T1 construct: Full-length human CGT cDNA was cloned into the BamH1/Xho1 site of pcDNA3.1 (+); expressed in transfected cells; host or cells: Chinese hamster ovary (CHO) cells; lysate prepared with M-PER
T1 sequence (Q16880 21-541): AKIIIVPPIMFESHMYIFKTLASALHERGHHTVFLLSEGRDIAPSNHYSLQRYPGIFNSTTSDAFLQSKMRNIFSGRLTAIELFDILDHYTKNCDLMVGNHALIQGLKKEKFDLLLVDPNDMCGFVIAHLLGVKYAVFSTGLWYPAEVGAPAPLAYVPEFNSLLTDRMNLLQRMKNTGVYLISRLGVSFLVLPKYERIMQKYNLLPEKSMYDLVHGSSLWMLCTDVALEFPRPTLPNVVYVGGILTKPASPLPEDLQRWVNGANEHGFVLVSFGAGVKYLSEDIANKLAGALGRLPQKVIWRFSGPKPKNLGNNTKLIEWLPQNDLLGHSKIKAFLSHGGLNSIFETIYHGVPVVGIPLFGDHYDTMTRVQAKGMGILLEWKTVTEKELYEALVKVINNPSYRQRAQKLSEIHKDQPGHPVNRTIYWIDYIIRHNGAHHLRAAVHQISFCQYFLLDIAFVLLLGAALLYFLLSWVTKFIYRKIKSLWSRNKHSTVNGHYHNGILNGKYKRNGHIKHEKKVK
Format: biochemical
Method in brief: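 IC50s come from variable-slope dose-response fits of internal-standard-normalized C6-NBD-dihydro-galactosylceramide, measured by RapidFire/MS/MS (ESI negative). Reactions: 1 h, 37 °C, human CGT-expressing CHO lysate (4 μg), 0.001–50 μM compound, 10 μM NBD-dihydro-ceramide, 17.5 μM UDP-galactose, 0.5% DMSO, pH 7.2; 0.01% Tween 80 added for ** values.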

Compared with O=C([C@H](NS(=O)(=O)c1ccc2cc(OC3CCCC3)ccc2c1)C(F)(F)c1ccc(-c2ccc(Cl)cc2)cc1)N1CCNCC1 [Compound 137-2, (S)—N-(1-(4′-chloro-[1,1′-biphenyl]-4-yl)-1,1-difluoro-3-oxo-3-(piperazin-1-yl)propan-2-yl)-6-(cyclopentyloxy)naphthalene-2-sulfonamide trifluoroacetate], NCC1CCN(C(=O)[C@@H](NS(=O)(=O)c2ccc3cc(OC4CCCC4)ccc3c2)C(F)(F)c2ccc(-c3ccc(Cl)cc3)cc2)CC1 [Compound 138-1, (R)—N-(3-(4-(aminomethyl)piperidin-1-yl)-1-(4′-chloro-[1,1′-biphenyl]-4-yl)-1,1-difluoro-3-oxopropan-2-yl)-6-(cyclopentyloxy)naphthalene-2-sulfonamide trifluoroacetate] is higher in pIC50: 4.52 to 5.00 for the first, > 6.00 for the second. The second is the more potent here.

First: NCC1CCN(C(=O)[C@H](NS(=O)(=O)c2ccc3cc(OC4CCCC4)ccc3c2)C(F)(F)c2ccc(-c3ccc(Cl)cc3)cc2)CC1 [Compound 138-2, (S)—N-(3-(4-(aminomethyl)piperidin-1-yl)-1-(4′-chloro-[1,1′-biphenyl]-4-yl)-1,1-difluoro-3-oxopropan-2-yl)-6-(cyclopentyloxy)naphthalene-2-sulfonamide trifluoroacetate]
Second: N[C@@H]1CCN(C(=O)[C@@H](NS(=O)(=O)c2ccc3cc(OC4CCCC4)ccc3c2)C(F)(F)c2ccc(Br)cc2)C1 [Compound 139-1, N—((R)-3-((R)-3-aminopyrrolidin-1-yl)-1-(4-bromophenyl)-1,1-difluoro-3-oxopropan-2-yl)-6-(cyclopentyloxy)naphthalene-2-sulfonamide]
The pIC50 of the first is lower: 5.00 to 6.00 for the first, > 6.00 for the second.

N[C@@H]1CCN(C(=O)[C@H](NS(=O)(=O)c2ccc3cc(OC4CCCC4)ccc3c2)C(F)(F)c2ccc(Br)cc2)C1 [Compound 139-2, N—((S)-3-((R)-3-aminopyrrolidin-1l-yl)-1-(4-bromophenyl)-1,1-difluoro-3-oxopropan-2-yl)-6-(cyclopentyloxy)naphthalene-2-sulfonamide] and N[C@H]1CCN(C(=O)[C@@H](NS(=O)(=O)c2ccc3cc(OC4CCCC4)ccc3c2)C(F)(F)c2ccc(Br)cc2)C1 [Compound 140-1, N—((R)-3-((S)-3-aminopyrrolidin-1-yl)-1-(4-bromophenyl)-1,1-difluoro-3-oxopropan-2-yl)-6-(cyclopentyloxy)naphthalene-2-sulfonamide] fall in the same range of pIC50: 5.00 to 6.00 for the first, 5.00 to 6.00 for the second.

First: N[C@H]1CCN(C(=O)[C@H](NS(=O)(=O)c2ccc3cc(OC4CCCC4)ccc3c2)C(F)(F)c2ccc(Br)cc2)C1 [Compound 140-2, N—((S)-3-((S)-3-aminopyrrolidin-1-yl)-1-(4-bromophenyl)-1,1-difluoro-3-oxopropan-2-yl)-6-(cyclopentyloxy)naphthalene-2-sulfonamide]
Second: NC1CCN(C(=O)[C@@H](NC(=O)[C@H](O)c2ccc(OCC3CCCCC3)cc2)C(F)(F)c2ccc(-c3ccc(Cl)cc3)cc2)CC1 [Compound 141-1, (R)—N—((R)-3-(4-aminopiperidin-1-yl)-1-(4′-chloro-[1,1′-biphenyl]-4-yl)-1,1-difluoro-3-oxopropan-2-yl)-2-(4-(cyclohexylmethoxy)phenyl)-2-hydroxyacetamide trifluoroacetate]
The pIC50 of the first is lower: 4.52 to 5.00 for the first, 5.00 to 6.00 for the second. The second is the more potent here.

Compared with NC1CCN(C(=O)[C@H](NC(=O)[C@@H](O)c2ccc(OCC3CCCCC3)cc2)C(F)(F)c2ccc(-c3ccc(Cl)cc3)cc2)CC1 [Compound 141-2, (S)—N—((S)-3-(4-aminopiperidin-1-yl)-1-(4′-chloro-[1,1′-biphenyl]-4-yl)-1,1-difluoro-3-oxopropan-2-yl)-2-(4-(cyclohexylmethoxy)phenyl)-2-hydroxyacetamide trifluoroacetate], NC1CCN(C(=O)[C@@H](NC(=O)[C@@H](O)c2ccc(OCC3CCCCC3)cc2)C(F)(F)c2ccc(-c3ccc(Cl)cc3)cc2)CC1 [Compound 141-3, (S)—N—((R)-3-(4-aminopiperidin-1-yl)-1-(4′-chloro-[1,1′-biphenyl]-4-yl)-1,1-difluoro-3-oxopropan-2-yl)-2-(4-(cyclohexylmethoxy)phenyl)-2-hydroxyacetamide trifluoroacetate] is higher in pIC50: 4.52 to 5.00 for the first, 5.00 to 6.00 for the second. The second is the more potent here.

NC1CCN(C(=O)[C@H](NC(=O)[C@H](O)c2ccc(OCC3CCCCC3)cc2)C(F)(F)c2ccc(-c3ccc(Cl)cc3)cc2)CC1 [Compound 141-4, (R)—N—((S)-3-(4-aminopiperidin-1-yl)-1-(4′-chloro-[1,1′-biphenyl]-4-yl)-1,1-difluoro-3-oxopropan-2-yl)-2-(4-(cyclohexylmethoxy)phenyl)-2-hydroxyacetamide trifluoroacetate] gave a pIC50 of 4.00 to 4.52.

Each compound was assayed against T1, human CGT (ceramide galactosyltransferase), CHO/CGT lysate (assay: CGT enzyme assay, RapidFire/MS/MS readout with 0.01% Tween added (Table 1 ranges with two asterisks **)). Details: CGT enzyme assay, RapidFire/MS/MS method with 0.01% Tween added (range with two asterisks **).
Format: biochemical
Description: Full-length human CGT cDNA was cloned into the BamH1/Xho1 site of pcDNA3.1 (+) mammalian expression vector (V90-20, Invitrogen, Carlsbad, Calif.) and the plasmid was transfected into Chinese hamster ovary (CHO) cells. Lysate was prepared using M-PER (Mammalian Protein Extraction Reagent, ThermoFisher Scientific, Grand Island, N.Y.) in the presence of a protease inhibitor cocktail (P8340, Sigma, Saint Louis, Mo.). Each 100 mm dish (100% confluent, approximately 1×10^7 cells) was lysed with 250 μL of M-PER containing protease inhibitors. Protein concentration was determined using a Pierce BCA protein assay kit (ThermoFisher Scientific). Four micrograms of CHO/CGT lysate was incubated with various concentrations of a compound (0.001 μM-50 μM) in 10 mM HEPES (pH 7.2) containing 35 μM dioleoylphosphatidylcholine, 5 mM MgCl2, 5 mM MnCl2, 1% BSA, 15 mM KCl, 1 mM EGTA, 8 mM CHAPS, 10 μM C6-NBD-dihydro-ceramide and 17.5 μM UDP-galactose in a final reaction volume of 20 μL at 37° C. for 1 hour. The final concentration of DMSO was 0.5% in both compound-treated and mock-treated samples. Tween 80 (0.01%) was optionally added to the reaction mixture to help solubilize the compounds. Each individual reaction was diluted with 80 μL of methanol:acetronitrile (1:3) containing 5 μM N-docdecanoyl-NBD-galactosylceramide (internal standard) to stop the reaction. 200 μL H2O:acetonitile (1:1) was added to precipitate the protein. After sufficient mixing, the plates were centrifuged at 2469 g for 38 minutes, 200 μL of supernatant was transferred to a LC/MS 96-deep well plate and a second spin was performed at 2469 g for 10 minutes. The final supernatant was injected in triplicate for RapidFire/MS/MS analysis.
Quantitative Analysis Using the RapidFire/MS/MS Method:
The quantitative analysis of C6-NBD-dihydro-ceramide and C6-NBD-dihydro-galactosylceramide was performed on a Rapid Fire 360 high-throughput mass spectrometry system (Agilent Technologies, Palo Alto, Calif.) coupled with a API4000^+ triple quadrupole mass spectrometer (Applied Biosystems, Concord, Ontario, Canada). RapidFire software packages, including RapidFire Control panel, RapidFire UI and RapidFire Integrator (Agilent Technologies), were used to control the RapidFire instrument and to process data. Analyst 1.6.2 software packages (Applied Biosystems) were used to control the MS system and acquire MS data. […] of sample was loaded on a micro-scale C4 solid-phase extraction (SPE) cartridge (Agilent Technologies) and salts were removed using water supplemented with 0.1% formic acid at the flow rate of 1.5 mL/min for 3 sec. C6-NBD-dihydro-ceramide and C6-NBD-dihydro-galactosylceramide were co-eluted into the mass spectrometer using acetonitrile containing 0.1% formic acid at the flow rate of 1.0 mL/min for 3 sec. The total cycle time of one injection was 8 secs. The MS/MS detection was performed in ESI negative mode. The mass transition of C6-NBD-dihydro-galactosylceramide was m/z 752.6→678.6 using a −40 V collision energy, the mass transition of C6-NBD-dihydro-ceramide was m/z 590.6→115.8 using a −40 V collision energy and the mass transition of N-docdecanoyl-NBD-galactosylceramide was m/z 820.9→746.3 using a −45 V collision energy.
The C6-NBD-dihydro-galactosylceramide reading was normalized first by dividing the peak area of C6-NBD-dihydro-galactosylceramide by the peak area of the internal standard, N-docdecanoyl-NBD-galactosylceramide. IC50 values (see Table 1, where data ranges with one asterix (*) correspond to analysis using the RapidFire/MS/MS method, and data ranges with two asterixes (**) correspond to analysis using the RapidFire/MS/MS method with 0.01% Tween added) were generated from sigmoidal dose-response curves (variable slope) with GraphPad Prism software (GraphPad Software, Inc., San Diego, Calif.) using the normalized peak areas of C6-NBD-dihydro-galactosylceramide or the percent inhibition of C6-NBD-dihydro-galactosylceramide accumulation relative to DMSO control. […]

Compared with COc1cc(C(F)(F)[C@H](NS(=O)(=O)c2ccc(OCC3CCCCC3)cc2)C(=O)N2C3CCC2CC(N)C3)ccc1-c1ccc(Cl)cc1 (stereo partly drawn) [Compound 142-1, N-((2R)-3-(3-amino-8-azabicyclo[3.2.1]octan-8-yl)-1-(4′-chloro-2-methoxy-[1,1′-biphenyl]-4-yl)-1,1-difluoro-3-oxopropan-2-yl)-4-(cyclohexylmethoxy) benzenesulfonamide trifluoroacetate], COc1cc(C(F)(F)[C@@H](NS(=O)(=O)c2ccc(OCC3CCCCC3)cc2)C(=O)N2C3CCC2CC(N)C3)ccc1-c1ccc(Cl)cc1 (stereo partly drawn) [Compound 142-2, N-((2S)-3-(3-amino-8-azabicyclo[3.2.1]octan-8-yl)-1-(4′-chloro-2-methoxy-[1,1′-biphenyl]-4-yl)-1,1-difluoro-3-oxopropan-2-yl)-4-(cyclohexylmethoxy)benzenesulfonamide trifluoroacetate] is lower in pIC50: > 6.00 for the first, 5.00 to 6.00 for the second. The first is the more potent here.

Compound COc1cc(C(F)(F)[C@H](NS(=O)(=O)c2ccc3cc(OC4CCCC4)ccc3c2)C(=O)N2CCC(N)CC2)ccc1Br [Compound 143-1, (R)—N-(3-(4-aminopiperidin-1-yl)-1-(4-bromo-3-methoxyphenyl)-1,1-difluoro-3-oxopropan-2-yl)-6-(cyclopentyloxy)naphthalene-2-sulfonamide trifluoroacetate] has a pIC50 of 5.00 to 6.00.
